Assay results from patent US20240115656A1, “Treatment of Constipation-Predominant Irritable Bowel Syndrome” (Ironwood Pharmaceuticals, Inc., priority 2010, published 2024).
Positions of bridges follow the written chain, without caps; N, C: chain ends. Residues, ends and D or L forms follow the SMILES beside them.

Legend:
[1] = tested on: patients meeting modified Rome II criteria for constipation-predominant irritable bowel syndrome; test: Trial 1 (LIN-MD-31): randomized, double-blind, placebo-controlled trial with 12-week treatment period and randomized withdrawal period; format: in vivo, human
Method: (§1) Linaclotide capsules from Example 4 were administered in two multicenter, randomized, double-blind, placebo-controlled parallel-group trials.
Trial 1 (LIN-MD-31) was conducted on approximately 800 patients meeting modified Rome II criteria for constipation-predominant irritable bowel syndrome. The trial included a two-week pretreatment baseline period, a 12-week treatment period, and a randomized withdrawal period (see FIG. 1A).
(§2) The Pretreatment Period is defined as the 14 to 21 calendar days immediately before starting the trial during which patients provided information related to their daily bowel habits, daily assessment of the symptom severity (such as, e.g., abdominal pain), constipation severity, and use of other medicines, laxatives, suppositories, and/or enemas. Patients who satisfied the necessary criteria were entered into the Treatment Period.
(§3) In both trials, the Treatment Period began with randomization. In Trial 1, treatment lasted for 12 weeks. In Trial 2, treatment lasted for 26 weeks. Patients were randomized to approximately equal-sized treatment groups consisting of 266 μg linaclotide or a placebo, taken once daily in the morning 30 minutes before breakfast. Patients continued to provide daily assessments such as their daily bowel habit assessments and daily patient symptom severity assessments.
(§4) In both trials, daily assessment data for patients in both treatment groups were compiled to give the following primary, co-primary and secondary treatment efficacy endpoints, which have been defined by United States and European regulatory agencies for the study of the efficacy of IBS-C.
(§5) A patient was classified as a 9/12 Week APC 3+1 Responder if they were a weekly APC 3+1 Responder for ≥9 out of the 12 (i.e., 9/12) weeks of the study.
(§6) A patient was classified as a 9/12 Week CSBM 3+1 Responder if they were a weekly CSBM 3+1 Responder for ≥9/12 weeks.
(§7) A patient was classified as a 9/12 Week Abdominal Pain Responder if they were a weekly Abdominal Pain Responder for ≥9/12 weeks.
(§8) A patient was classified as a 6/12 Week APC+1 Responder if they were a weekly APC+1 Responder for ≥6 out of the 12 (i.e., 6/12) weeks of the study.
(§9) Also compiled from the patient daily data were the following secondary efficacy endpoints: • Change From Baseline (i.e., change from pre-treatment period) in CSBM Frequency Rate (measured as a weekly rate); • Change From Baseline (“CFB”) in SBM Frequency Rate (weekly rate); • Change From Baseline in Stool Consistency (measured on a 7-point BSFS); • Change From Baseline in Severity of Straining (measured on a 5-point scale); • Change From Baseline in Abdominal Pain (measured on a 11-point numerical rating scale and scored 0-10); • Change From Baseline in Abdominal Discomfort (measured on […] numerical rating scale and scored 0-10); • Change From Baseline in Bloating (measured on a 11-point numerical rating scale and scored 0-10); • 6/12 Week CSBM+1 Responder; • 6/12 Week Abdominal Pain Responder; and • Change From Baseline in Percent of Abdominal Pain-free Days (Pain-free is a score of 0 on the 0-10 point scale).
Patients who were randomized to linaclotide in the Treatment Period and completed the 12 weeks of the Treatment Period, the RW Population, were randomized to treatment with linaclotide or placebo in the RW Period as follows: half of the RW Population received placebo for the first half of the RW Period followed by administration of 266 μg linaclotide; one quarter of the RW Population received 266 μg linaclotide for the entire RW Period and the remaining one quarter of the RW Population received 266 μg linaclotide for the first half of the RW Period and placebo for the remainder of the RW Period. Patients that were randomized to placebo in the Treatment Period and completed the 12 weeks of the Treatment Period received 266 μg linaclotide in the RW Period.

[2] = tested on: patients meeting modified Rome II criteria for constipation-predominant irritable bowel syndrome; test: Trial 2 (MCP-103-302): randomized, double-blind, placebo-controlled trial with 26-week treatment period; format: in vivo, human
Method: as §1
Trial 2 (MCP-103-302) was conducted on approximately 805 patients meeting modified Rome II criteria for constipation-predominant irritable bowel syndrome (<3 CSBM/wk, ≤5 SBM/wk, abdominal pain≥3 on a 0-10 scale.) As in Trial 1, the trial included a two-week pretreatment baseline period; however, the treatment period was continued for 26 weeks rather than 12 weeks as in Trial 1, and no randomized withdrawal period was performed (see FIG. 1B).
as §2, §3, §4, §5, §6, §7, §8
In Trial 2, the above co-primary efficacy parameters, 12-week Abdominal Pain/Abdominal Discomfort Responder and 12-week IBS Degree of Relief Responder, were also computed for the full 26 week treatment period.
as §9

[3] = Systemic levels of linaclotide after oral administration; format: in vivo; conditions: after oral administration at therapeutic dose levels
[4] = tested on: chronic constipation (CC); conditions: Phase 2b studies for CC; four-week treatment period; cited from earlier work
[5] = 266 μg linaclotide group, once daily, 12 weeks
[6] = 266 μg linaclotide group, once daily
[7] = 266 μg linaclotide group, once daily, first 12 weeks
[8] = 26-week treatment period, linaclotide-treated patients
[9] = after 12 weeks, linaclotide-treated patients
[10] = main secondary efficacy endpoint, full 26 week treatment period
[11] = throughout the 26-week treatment period, linaclotide-treated patients

C[C@@H]1NC(=O)[C@@H]2CCCN2C(=O)[C@H](CC(N)=O)NC(=O)[C@@H]2CSSC[C@H](N)C(=O)N[C@H]3CSSC[C@H](NC1=O)C(=O)N[C@@H]([C@@H](C)O)C(=O)NCC(=O)N[C@H](C(=O)N[C@@H](Cc1ccc(O)cc1)C(=O)O)CSSC[C@H](NC(=O)[C@H](Cc1ccc(O)cc1)NC(=O)[C@H](CCC(=O)O)NC3=O)C(=O)N2 [linaclotide, Cys1 Cys2 Glu3 Tyr4 Cys5 Cys6 Asn7 Pro8 Ala9 Cys10 Thr11 Gly12 Cys13 Tyr14] (H-CCEYCCNPACTGCY-OH; disulfide 1-6, 2-10, 5-13)
6/12-week APC+1 pain responder rate [1, 5]: 33.6%
6/12-week abdominal pain responder rate [1, 5]: 50.1%
6/12 week CSBM+1 responder rate [1, 5]: 48.6%
9/12-week APC 3+1 responder rate [1, 5]: 12.1%
9/12-week CSBM 3+1 responder rate [1, 5]: 19.5%
9/12-week abdominal pain responder rate [1, 5]: 34.3%
12-week Abdominal Pain/Abdominal Discomfort Responder [1, 5]: 54.8%
12-week IBS Degree of Relief Responder [1, 5]: 37.0%
rebound of IBS-C symptoms following discontinuation of linaclotide treatment ([1]; Randomized Withdrawal Period): no evidence of rebound of IBS-C symptoms
12-week Abdominal Pain/Abdominal Discomfort Responder: Statistical Significance (266 μg vs. Placebo) ([1]; co-primary efficacy parameter): Yes
12-week IBS Degree of Relief Responder: Statistical Significance (266 μg vs. Placebo) ([1]; co-primary efficacy parameter): Yes
adverse event: diarrhea with mild symptoms ([1]; linaclotide group): 9%
adverse event: diarrhea with moderate symptoms ([1]; linaclotide group): 8%
adverse event: diarrhea with severe symptoms ([1]; linaclotide group): 2%
overall rate of discontinuation due to adverse events ([1]; linaclotide group): 8%
patients reporting at least a 10% improvement in abdominal symptoms over 12 weeks ([1]; linaclotide treatment, FIG. 10): under 80%
adverse event: abdominal pain ([1]; linaclotide-treated patients): 5%
adverse event: diarrhea ([1]; linaclotide-treated patients): 19%
adverse event: flatulence ([1]; linaclotide-treated patients): 5%
adverse event: headache ([1]; linaclotide-treated patients): 5%
more CSBMs per week than with the placebo alone ([1]; on average, 12 weeks, FIG. 12C): about 1.5 CSBMs per week
time until abdominal pain was reduced over the pre-treatment baseline ([1]; on average, sustained throughout the treatment period): 1 to 3 days
6/12 Week APC + 1 Responder: Statistical Significance (266 μg vs. Placebo) ([1]; primary efficacy endpoint): Yes
9/12 Week APC 3 + 1 Responder: Statistical Significance (266 μg vs. Placebo) ([1]; primary efficacy endpoint): Yes
9/12 Week Abdominal Pain Responder: Statistical Significance (266 μg vs. Placebo) ([1]; primary efficacy endpoint): Yes
9/12 Week CSBM 3 + 1 Responder: Statistical Significance (266 μg vs. Placebo) ([1]; primary efficacy endpoint): Yes
6/12 Week Abdominal Pain Responder: Statistical Significance (266 μg vs. Placebo) ([1]; secondary efficacy endpoint): Yes
6/12 Week CSBM + 1 Responder: Statistical Significance (266 μg vs. Placebo) ([1]; secondary efficacy endpoint): Yes
12-Week Abdominal Discomfort (CFB): Statistical Significance (266 μg vs. Placebo) ([1]; secondary efficacy endpoint): Yes
12-Week Abdominal Pain (CFB): Statistical Significance (266 μg vs. Placebo) ([1]; secondary efficacy endpoint): Yes
12-Week Bloating (CFB): Statistical Significance (266 μg vs. Placebo) ([1]; secondary efficacy endpoint): Yes
12-Week CSBM Frequency Rate(CFB): Statistical Significance (266 μg vs. Placebo) ([1]; secondary efficacy endpoint): Yes
12-Week Percent of Abdominal Pain-free Days (CFB): Statistical Significance (266 μg vs. Placebo) ([1]; secondary efficacy endpoint): Yes
12-Week SBM Frequency Rate (CFB): Statistical Significance (266 μg vs. Placebo) ([1]; secondary efficacy endpoint): Yes
12-Week Severity of Straining (CFB): Statistical Significance (266 μg vs. Placebo) ([1]; secondary efficacy endpoint): Yes
12-Week Stool Consistency (CFB): Statistical Significance (266 μg vs. Placebo) ([1]; secondary efficacy endpoint): Yes
12-week Abdominal Pain/Abdominal Discomfort Responder [2, 6]: 54.1%
12-week IBS Degree of Relief Responder [2, 6]: 39.4%
6/12-week APC+1 pain responder rate [2, 7]: 33.7%
9/12-week APC 3+1 responder rate [2, 7]: 12.7%
9/12-week CSBM 3+1 responder rate [2, 7]: 18.0%
9/12-week abdominal pain responder rate [2, 7]: 38.9%
overall rate of discontinuation due to adverse events [2, 8]: 10.2%
patients discontinued due to diarrhea [2, 8]: 4.5%
overall rate of discontinuation due to adverse events ([2]; after 12 weeks, linaclotide group): 9%
adverse event: abdominal pain [2, 9]: 4%
adverse event: diarrhea [2, 9]: 18%
adverse event: flatulence [2, 9]: 3%
adverse event: headache [2, 9]: 3%
12-week Abdominal Pain/Abdominal Discomfort Responder: Statistical Significance (266 μg vs. Placebo) ([2]; co-primary efficacy parameter): Yes
12-week IBS Degree of Relief Responder: Statistical Significance (266 μg vs. Placebo) ([2]; co-primary efficacy parameter): Yes
26-week Abdominal Pain/Abdominal Discomfort Responder: Statistical Significance (266 μg vs. Placebo) [2, 10]: Yes
26-week IBS Degree of Relief Responder: Statistical Significance (266 μg vs. Placebo) [2, 10]: Yes
CSBMs per week compared with placebo ([2]; on average, 12 weeks after treatment, FIG. 12C): more CSBMs per week than with the placebo alone
time until abdominal pain was reduced over the pre-treatment baseline ([2]; on average, sustained throughout the 26 week treatment period): 1 to 3 days
6/12 Week APC + 1 Responder: Statistical Significance (266 μg vs. Placebo) ([2]; primary efficacy endpoint): Yes
9/12 Week APC 3 + 1 Responder: Statistical Significance (266 μg vs. Placebo) ([2]; primary efficacy endpoint): Yes
9/12 Week Abdominal Pain Responder: Statistical Significance (266 μg vs. Placebo) ([2]; primary efficacy endpoint): Yes
9/12 Week CSBM 3 + 1 Responder: Statistical Significance (266 μg vs. Placebo) ([2]; primary efficacy endpoint): Yes
6/12 Week Abdominal Pain Responder: Statistical Significance (266 μg vs. Placebo) ([2]; secondary efficacy endpoint): Yes
6/12 Week CSBM + 1 Responder: Statistical Significance (266 μg vs. Placebo) ([2]; secondary efficacy endpoint): Yes
12-Week Abdominal Discomfort (CFB): Statistical Significance (266 μg vs. Placebo) ([2]; secondary efficacy endpoint): Yes
12-Week Abdominal Pain (CFB): Statistical Significance (266 μg vs. Placebo) ([2]; secondary efficacy endpoint): Yes
12-Week Bloating (CFB): Statistical Significance (266 μg vs. Placebo) ([2]; secondary efficacy endpoint): Yes
12-Week CSBM Frequency Rate(CFB): Statistical Significance (266 μg vs. Placebo) ([2]; secondary efficacy endpoint): Yes
12-Week Percent of Abdominal Pain-free Days (CFB): Statistical Significance (266 μg vs. Placebo) ([2]; secondary efficacy endpoint): Yes
12-Week SBM Frequency Rate (CFB): Statistical Significance (266 μg vs. Placebo) ([2]; secondary efficacy endpoint): Yes
12-Week Severity of Straining (CFB): Statistical Significance (266 μg vs. Placebo) ([2]; secondary efficacy endpoint): Yes
12-Week Stool Consistency (CFB): Statistical Significance (266 μg vs. Placebo) ([2]; secondary efficacy endpoint): Yes
adverse event: abdominal pain [2, 11]: 4.5%
adverse event: diarrhea [2, 11]: 19.7%
adverse event: flatulence [2, 11]: 3.7%
adverse event: headache [2, 11]: 3.2%
adverse event: viral gastroenteritis [2, 11]: 3.7%
levels of linaclotide seen systemically [3]: no detectable levels
effect on constipation, abdominal discomfort and bloating [4]: reduced constipation, abdominal discomfort, and bloating
